Data taken from ChEMBL document CHEMBL5038624, “Construction and activity evaluation of novel dual-target (SE/CYP51) anti-fungal agents containing amide naphthyl structure” (Eur J Med Chem, 2022).
≈ marks a conversion by molar mass, not a printed value.

What was measured:
Assay type in all cases: functional
Candida albicans [1] = assay: Antifungal activity against Candida albicans SC5314 assessed as reduction in fungal growth incubated for 72 hrs by CLSI protocol based broth microdilution method
Nakaseomyces glabratus = assay: Antifungal activity against Candida glabrata ATCC 0001 assessed as reduction in fungal growth incubated for 72 hrs by CLSI protocol based broth microdilution method
Pichia kudriavzevii = assay: Antifungal activity against Candida krusei ATCC 6258 assessed as reduction in fungal growth incubated for 72 hrs by CLSI protocol based broth microdilution method
Candida tropicalis = assay: Antifungal activity against Candida tropicalis ATCC 1369 assessed as reduction in fungal growth incubated for 72 hrs by CLSI protocol based broth microdilution method
Aspergillus fumigatus = assay: Antifungal activity against Aspergillus fumigatus KM8001 assessed as reduction in fungal growth incubated for 72 hrs by CLSI protocol based broth microdilution method
Candida albicans [2] = assay: Antifungal activity against Candida albicans strain 17 assessed as reduction in fungal growth incubated for 72 hrs by CLSI protocol based broth microdilution method
Candida albicans [3] = assay: Antifungal activity against Candida albicans strain CaR assessed as reduction in fungal growth incubated for 72 hrs by CLSI protocol based broth microdilution method
Candida albicans [4] = assay: Antifungal activity against Candida albicans strain 632 assessed as reduction in fungal growth incubated for 72 hrs by CLSI protocol based broth microdilution method
Candida albicans [5] = assay: Antifungal activity against Candida albicans strain 901 assessed as reduction in fungal growth incubated for 72 hrs by CLSI protocol based broth microdilution method
Candida albicans [6] = assay: Antifungal activity against Candida albicans strain 904 assessed as reduction in fungal growth incubated for 72 hrs by CLSI protocol based broth microdilution method

Structure (SMILES)	MIC50 (Candida albicans [1]) [µg/mL]	MIC50 (Nakaseomyces glabratus) [µg/mL]	MIC50 (Pichia kudriavzevii) [µg/mL]	MIC50 (Candida tropicalis) [µg/mL]	MIC50 (Aspergillus fumigatus) [µg/mL]	MIC50 (Candida albicans [2]) [µg/mL]	MIC50 (Candida albicans [3]) [µg/mL]	MIC50 (Candida albicans [4]) [µg/mL]	MIC50 (Candida albicans [5]) [µg/mL]	MIC50 (Candida albicans [6]) [µg/mL]
O=C(/C=C/c1cccc2ccccc12)NC(Cn1ccnc1)c1ccccc1 (stereo not given)	0.125 (≈ 0.34 µM)	0.5 (≈ 1.36 µM)	0.125 (≈ 0.34 µM)	0.25 (≈ 0.68 µM)	2 (≈ 5.44 µM)	4 (≈ 10.9 µM)	4 (≈ 10.9 µM)	> 8	4 (≈ 10.9 µM)	> 8
O=C(/C=C/c1ccc2ccccc2c1)NC(C(=O)NCc1cccnc1)c1ccccc1 (stereo not given)	2 (≈ 4.74 µM)	0.5 (≈ 1.19 µM)	1 (≈ 2.37 µM)	2 (≈ 4.74 µM)	> 8	–	–	–	–	–
O=C(/C=C/c1cccc2ccccc12)NC(Cn1cncn1)C(=O)c1ccccc1 (stereo not given)	0.25 (≈ 0.631 µM)	0.25 (≈ 0.631 µM)	0.5 (≈ 1.26 µM)	0.125 (≈ 0.315 µM)	4 (≈ 10.1 µM)	–	–	–	–	–
O=C(NC(Cn1cncn1)C(=O)c1ccccc1)c1cccc2ccccc12 (stereo not given)	0.5 (≈ 1.35 µM)	0.5 (≈ 1.35 µM)	0.5 (≈ 1.35 µM)	0.25 (≈ 0.675 µM)	> 8	–	–	–	–	–
O=C(NC(Cn1ccnc1)C(=O)c1ccccc1)c1ccc2ccccc2c1 (stereo not given)	0.125 (≈ 0.338 µM)	0.25 (≈ 0.677 µM)	0.5 (≈ 1.35 µM)	0.5 (≈ 1.35 µM)	> 8	–	–	–	–	–
O=C(NC(Cn1ccnc1)c1ccccc1)c1cccc2ccccc12 (stereo not given)	0.5 (≈ 1.46 µM)	1 (≈ 2.93 µM)	1 (≈ 2.93 µM)	0.5 (≈ 1.46 µM)	> 8	–	–	–	–	–
O=C(NC(Cn1cncn1)c1ccccc1)c1cccc2ccccc12 (stereo not given)	0.25 (≈ 0.73 µM)	2 (≈ 5.84 µM)	0.5 (≈ 1.46 µM)	0.125 (≈ 0.365 µM)	> 8	–	–	–	–	–
O=C(/C=C/c1cccc2ccccc12)NC(C(=O)NCc1cccnc1)c1ccccc1 (stereo not given)	4 (≈ 9.49 µM)	2 (≈ 4.74 µM)	2 (≈ 4.74 µM)	0.5 (≈ 1.19 µM)	> 8	–	–	–	–	–
O=C(/C=C/c1cccc2ccccc12)NC(C(=O)NCc1ccncc1)c1ccccc1 (stereo not given)	2 (≈ 4.74 µM)	0.5 (≈ 1.19 µM)	4 (≈ 9.49 µM)	2 (≈ 4.74 µM)	> 8	–	–	–	–	–
O=C(NC(Cn1ccnc1)C(=O)c1ccccc1)c1cccc2ccccc12 (stereo not given)	0.5 (≈ 1.35 µM)	1 (≈ 2.71 µM)	0.25 (≈ 0.677 µM)	0.5 (≈ 1.35 µM)	4 (≈ 10.8 µM)	–	–	–	–	–
O=C(/C=C/c1ccc2ccccc2c1)NC(C(=O)NCc1ccncc1)c1ccccc1 (stereo not given)	1 (≈ 2.37 µM)	1 (≈ 2.37 µM)	2 (≈ 4.74 µM)	1 (≈ 2.37 µM)	> 8	–	–	–	–	–
O=C(/C=C/c1ccc2ccccc2c1)NC(C(=O)Nc1ccncc1)c1ccccc1 (stereo not given)	0.5 (≈ 1.23 µM)	0.5 (≈ 1.23 µM)	0.5 (≈ 1.23 µM)	0.5 (≈ 1.23 µM)	2 (≈ 4.91 µM)	–	–	–	–	–
O=C(/C=C/c1ccc2ccccc2c1)NC(C(=O)Nc1cccnc1)c1ccccc1 (stereo not given)	0.5 (≈ 1.23 µM)	0.25 (≈ 0.614 µM)	1 (≈ 2.45 µM)	0.25 (≈ 0.614 µM)	4 (≈ 9.82 µM)	–	–	–	–	–
O=C(/C=C/c1cccc2ccccc12)NC(C(=O)Nc1ccncc1)c1ccccc1 (stereo not given)	0.5 (≈ 1.23 µM)	0.25 (≈ 0.614 µM)	0.5 (≈ 1.23 µM)	0.5 (≈ 1.23 µM)	> 8	–	–	–	–	–
